From publication PMC5556109, “A combinatorial approach for the discovery of cytochrome P450 2D6 inhibitors from nature” (Scientific Reports, 2017)
Like-named read-outs stand apart in the source and are kept apart here.

Tests used:
[1] = system: P450-Glo detection reaction (unspecific esterase and modified firefly-luciferase); experiment: P450-Glo detection reaction control (luciferin-EGE, esterase, luciferase, test compound, no CYP2D6); details: for P450-Glo Detection Reaction MEAN Diff. (inhibition of the detection reaction) / P450-Glo Detection Reaction MEAN (total luminescence): 50 µM test compound; for P450-Glo Detection Reaction MEAN Diff. (inhibition of the detection reaction): difference to DMSO 1% control; for P450-Glo Detection Reaction MEAN (total luminescence): no CYP2D6, DMSO control = 100; for p < 0.05 (significant inhibition of the P450-Glo detection reaction): 50 µM, one-way ANOVA, Dunnett's test vs DMSO control
Excerpt: This detection-reagent consists of i) a detergent that stops the CYP2D6 enzyme reaction, ii) an unspecific esterase that continuously releases luciferin and iii) a modified firefly-luciferase, thus a stable luminogenic signal is generated, which can be quantified by a luminometer (Fig. 1). The detection reaction is incorporated in the P450-Glo CYP2D6 inhibition assay. However, we implemented additional controls for unspecific interactions of the test compounds with the detection reaction. For this purpose, the previously established luminescence quenching control reaction reported by Modarai et al.[9] was adapted to our requirements with modifications for the use of larger sample volumes. In addition, Modarai et al. converted ME-luciferin-EGE to luciferin in the absence of a test compound and then evaluated the inhibition of the luciferase reaction.We conducted the control step by using pure luciferin-EGE, esterase, luciferase and a test compound in the absence of CYP2D6 (Supplementary Table S4).
The quantification of the P450-Glo detection reaction was performed by subtracting the background values prior to calculating the percentage of total luminescence (% TL) based on the total luminescence obtained from the solvent control (set to 100%).
We then added 12.5 µl 4× reaction mixture (5 µl 1.5 mM luciferin-EGE stock solution, 500 µl 1 M KPO4 buffer and 745 µl luciferase free water) to the wells. Finally, 25 µl of the 2× NADPH regeneration system was added. In order to initiate the detection reaction, 50 µl of the reconstituted luciferin detection reagent containing the esterase was added to the samples, positive and solvent control wells. This step was followed by 20 minutes incubation in the dark for signal stabilization. In the wells reserved for background luminescence, luciferase-free water was added. Measurements were performed on a Tecan infinite F200 PRO plate reader on two independent days (n = 2) at minimum.
(§1) Raw data obtained from Tecan infinite F200 PRO plate reader was processed by calculating total luminescence (% of untreated control) by applying the formula: raw data − (background luminescence) * 100/mean of negative control.
A one-way ANOVA followed by Dunnett’s multiple comparisons test was performed. […] A p-value of < 0.05 was used to indicate significance.

CYP2D6 [2] = target: CYP2D6 (Homo sapiens, UniProt P10635); experiment: P450-Glo CYP2D6 inhibition assay (bioluminescence-based; pre-screen at 100 µM and IC50 determination); details: for classification of CYP2D6 inhibition (actives / weak actives / inactives): ranked by IC50, inactives from pre-screen at 100 µM
Procedure: Their CYP2D6 inhibitory potential was determined at a concentration of 100 µM in a final reaction volume of 50 µl. […] All compounds were dissolved in DMSO and the concentration thereof in the final reaction volume was 1%, according to the limitations indicated in the manufacturer’s protocol. […] To take into account the background luminescence, which may derive from a non-enzymatic conversion of ME-luciferin-EGE to luciferin, we included a ‘minus P450’ control that contained no CYP2D6 enzyme. In order to quantify CYP2D6 activity, we subtracted background values prior to calculating the percentage of total luminescence (% TL) obtained from the solvent control (set to 100%). Low % TL indicates low CYP2D6 activity.
In the three minus P450 control wells, 12.25 µl of the 4× reaction mixture was added. […] The plate was incubated for 10 minutes. The CYP2D6 enzyme reaction was initiated by the addition of 25 µl of 2× NADPH regeneration system (2.6 mM NADP^+, 6.6 mM glucose-6-phosphate, 6.6 mM MgCl2 and 0.8 U/ml glucose-6-phosphate dehydrogenase buffered in 0.1 mM sodium citrate at pH 5.5; Promega). After 45 minutes incubation, the enzyme reaction was stopped by the addition of 50 µl of the luciferin detection reagent, which contained also the esterase for the generation of the luminescence signal. The plate was incubated in the dark for 20 minutes in order to stabilize the signal measured by a Tecan infinite F200 PRO plate reader. […] The maximum allowed DMSO concentration in the final reaction mix was 1% according to the manufacturer’s protocol. The experiment was performed at room temperature and under prevention of excessive UV-light at minimum on two independent days (n = 2).
Concentration-dependent CYP2D6 inhibition assays were performed by preparing a 5-step dilution series of the 400 µM compound solutions. […] After this dilution step, 12.5 µl of each dilution was transferred to the assay plate. The assay was performed as described above. The DMSO concentration was kept constant for all concentrations with a maximum of 1%. The experiments were performed on three independent experimental days (n = 3).
as §1

CYP2D6 [3] = experiment: CYP2D6 inhibition of virtual hits already reported in the literature; details: authors' classification of the literature value, Supplementary Table S2
Excerpt: the hits according to non-available CYP2D6 inhibition data, plant origin and availability. The

CYP2D6 [4] = details: Supplementary Table S2, supplementary reference list, cited from earlier work; for IC50: read-out: Inhibitory potency IC50
[5] = IC50, P450-Glo CYP2D6 Inhibition Assay, recombinant human CYP2D6, 6 concentrations (compound 18: 4), n = 3

Sequence of CYP2D6 (Homo sapiens, UniProt P10635) (P10635 whole entry): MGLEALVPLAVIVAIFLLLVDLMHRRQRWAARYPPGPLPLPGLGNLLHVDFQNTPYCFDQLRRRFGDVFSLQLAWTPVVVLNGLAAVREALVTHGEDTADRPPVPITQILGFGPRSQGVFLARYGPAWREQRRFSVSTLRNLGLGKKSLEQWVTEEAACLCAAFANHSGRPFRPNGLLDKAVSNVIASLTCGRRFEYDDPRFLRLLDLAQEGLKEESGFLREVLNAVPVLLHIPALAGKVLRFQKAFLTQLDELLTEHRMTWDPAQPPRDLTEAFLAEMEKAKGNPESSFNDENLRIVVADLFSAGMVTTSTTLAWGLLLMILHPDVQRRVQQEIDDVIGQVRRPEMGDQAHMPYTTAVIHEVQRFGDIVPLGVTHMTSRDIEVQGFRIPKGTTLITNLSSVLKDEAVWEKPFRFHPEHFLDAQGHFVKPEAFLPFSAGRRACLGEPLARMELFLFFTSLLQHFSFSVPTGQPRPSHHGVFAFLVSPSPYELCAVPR

Compound | P450-Glo Detection Reaction MEAN Diff. (inhibition of the detection reaction) [1] [%] | P450-Glo Detection Reaction MEAN (total luminescence) [1] [% TL] | p < 0.05 (significant inhibition of the P450-Glo detection reaction) [1] | IC50 (CYP2D6 [2]) [nM] | classification of CYP2D6 inhibition (actives / weak actives / inactives) (CYP2D6 [2]) | Classification of literature CYP2D6 inhibition (CYP2D6 [3]) | IC50 (CYP2D6 [4]) [nM] | Inhibitory potency (CYP2D6 [4]) | IC50 (CYP2D6 [2]; [5]) [nM] | IC50 at 45 min (CYP2D6 [2]; human, recombinant human CYP2D6 baculosomes, pH 7.4, probe ME-luciferin-EGE) [nM]
COc1cc2c(cc1O)-c1c(O)c(OC)cc3c1[C@H](C2)N(C)CC3 [Compound 18, Bracteoline] | 12.30 | 87.70 | Yes | 2110 | actives (those compounds were classified as active, which exhibited CYP2D6 IC50 values up to 10 µM) | – | – | – | – | –
C=C[C@H]1CN2CC[C@H]1C[C@H]2[C@H](O)c1ccnc2ccccc12 [Cinchonidine] | – | – | – | – | – | active | 10000 | – | – | –
COC(=O)N1c2ccccc2C23C4CN5CCCC6(CCC12C(O)(C6)C4=O)C53 (single isomer, unassigned; (-)) [Compound 16, (-)-Kopsine] | 10.30 | 89.70 | Yes | – | – | – | – | – | – | –
COC(=O)C1=CO[C@@H](C)[C@H]2CN3CC[C@@]4(C(=O)Nc5ccccc54)[C@@H]3C[C@H]12 [Compound 23, Isomitraphylline] | 0.59 | 99.41 | No | – | – | – | – | – | – | –
COc1cc2c(cc1OC)C(=O)Cc1ccc3c(c1CN(C)CC2)OCO3 [Cryptopine] | – | – | – | – | – | unclear | – | stated as inhibitor | – | –
COc1ccc2c(c1OC)CN1CCc3cc4c(cc3C1C2C)OCO4 (stereo not drawn) [Compound 3, Thalictrivacine] | 8.23 | 91.77 | Yes | – | actives (those compounds were classified as active, which exhibited CYP2D6 IC50 values up to 10 µM) | – | – | – | 5140 | –
COC(=O)C1=CO[C@@H](C)[C@H]2CN3CCc4c([nH]c5ccccc45)[C@@H]3C[C@H]12 [Ajmalicine] | – | – | – | – | – | active | 2.3 | – | – | –
COC(=O)C1CC23C=CCN4CCC5(c6ccccc6NC15CC2)C43 (single isomer, unassigned; (-)) [Compound 10, (-)-Venalstonine] | 3.66 | 96.34 | No | – | – | – | – | – | – | –
O=C(O)c1ccccc1-n1ccc2c([nH]c3ccccc32)c1=O [Compound 5, Secofascaplysic acid] | 20.46 | 79.54 | Yes | 50400 | weak actives | – | – | – | – | –
COc1ccc(/C=C\c2cc(OC)c(OC)cc2CCN(C)C)cc1 [Compound 15, Des-N,O-dimethylarmepavine] | 6.23 | 93.77 | Yes | 198 | actives (those compounds were classified as active, which exhibited CYP2D6 IC50 values up to 10 µM) | – | – | – | – | –
O=C(NCCCCNCCCNC(=O)c1ccc(O)c(O)c1)c1ccc(O)c(O)c1 [Compound 4, Pistillarin] | 13.61 | 86.39 | Yes | – | – | – | – | – | – | –
COc1ccc(CC2c3cc(OC)c(OC)cc3CCN2C)cc1OC (stereo not drawn) [Laudanosine] | – | – | – | – | – | unclear | – | stated as inhibitor | – | –
COC(=O)C1C(O)CCC2C[N+]3(C)CCc4c([nH]c5cccc(OC)c45)C3CC21 (stereo not drawn) [Compound 8, Venenatine methiodide] | 9.14 | 90.86 | Yes | 4600 | actives (those compounds were classified as active, which exhibited CYP2D6 IC50 values up to 10 µM) | – | – | – | – | –
COc1cc2c(cc1OC)C1Cc3cc(O)c(O)cc3CN1CC2 (stereo not drawn) [Compound 14, Spinosine] | 4.73 | 95.27 | Yes | 117 | actives (those compounds were classified as active, which exhibited CYP2D6 IC50 values up to 10 µM) | – | – | – | – | –
COc1ccc(C[C@@H]2NCCc3cc(OC)c(O)cc32)cc1O [Compound 9, (S)-Norreticuline] | 7.64 | 92.36 | Yes | – | actives (those compounds were classified as active, which exhibited CYP2D6 IC50 values up to 10 µM) | – | – | – | – | 63.6
CC[C@]12C=CCN3CC[C@]4(C(=C(C(=O)OC)C1)Nc1ccccc14)[C@@H]32 [Compound 22, Tabersonine] | – | 104.20 | Yes | – | actives (those compounds were classified as active, which exhibited CYP2D6 IC50 values up to 10 µM) | – | – | – | 419 | –
COc1ccc(CC2c3cc(O)c(OC)cc3CCN2C)cc1O (single isomer, unassigned; (+)) [Compound 19, (+)-Reticuline] | 1.06 | 98.94 | No | 54.7 | actives (those compounds were classified as active, which exhibited CYP2D6 IC50 values up to 10 µM) | – | – | – | – | –
COC1=C[C@]23CCN(C)[C@H](Cc4ccc(OC)c(O)c42)C3=CC1=O [Compound 20, (+)-Salutaridine] | 2.94 | 97.06 | No | 24000 | weak actives | – | – | – | – | –
COc1ccc(C[C@H]2c3cc(OC)c(OC)cc3CCN2C)cc1O [Compound 11, (+)-Laudanidine] | 5.86 | 94.14 | Yes | 380 | actives (those compounds were classified as active, which exhibited CYP2D6 IC50 values up to 10 µM) | – | – | – | – | –
CCC1=CC2CN3CCc4c([nH]c5ccccc45)C(C(=O)OC)(C2)C13 (single isomer, unassigned; (+)) [Compound 7, (+)-Catharanthine] | 6.41 | 93.59 | Yes | 582 | actives (those compounds were classified as active, which exhibited CYP2D6 IC50 values up to 10 µM) | – | – | – | – | –
COC(=O)C1=CO[C@@H](C)[C@@H]2CN3CC[C@]4(C(=O)Nc5ccccc54)[C@@H]3C[C@H]12 [Compound 1, Pteropodine] | 7.50 | 92.50 | Yes | 33800 | weak actives | – | – | – | – | –
CC=C1C2CCN3CCC4(C(=C2C(=O)OC)Nc2ccccc24)C13 (single isomer, unassigned; (+)) [Compound 17, (+)-Condylocarpine] | 7.34 | 92.66 | Yes | 8160 | actives (those compounds were classified as active, which exhibited CYP2D6 IC50 values up to 10 µM) | – | – | – | – | –
